# According to PubChem BioAssay AID686929 (Broad Institute, 2013):
# Several values for one entry are separate records, joined by “and”; a condition that tells them apart may be missing. Equal entries are not always repeated. Activity calls are given as the source filed them. The rule behind the calls is not given here.
# System: V. cholerae BH1578 lux luminescence induction, 6 h
# Assay: Inducers of light in absence of autoinducers, V. cholerae BH1578, confirmatory (AID 686929)
# Conditions: not given
row,SMILES,AC40
1,Cn1nc(NC(=O)c2ccco2)c2cccnc21,48.8 µM
2,Cn1nc(NC(=O)c2ccco2)c2cc3ccccc3nc21,6.9 µM
3,CCc1ccc2cc3c(NC(=O)c4ccco4)nn(C)c3nc2c1,52.1 µM
4,Cc1ccc2cc3c(NC(=O)C4CCCC4)nn(C)c3nc2c1,73.5 µM
5,Cc1cc2nc3c(cc2cc1F)c(NC(=O)c1ccco1)nn3C,25.3 µM
6,CCn1nnnc1NCc1ccc(C(C)C)cc1,0.923 µM
7,CCCCCCCCCC(=O)[C@H](O)CC (racemic),11.5 µM
8,Cc1cc(F)c2cc3c(NC(=O)c4ccco4)nn(C)c3nc2c1,> 100 µM (inactive)
9,Cc1cc(F)cc2nc3c(cc12)c(NC(=O)c1ccco1)nn3C,83.3 µM
10,O=C(Nc1nnc(-c2ccc3c(c2)OCCO3)o1)C1CCCCC1,5.45 µM and 1.91 µM
11,COc1ccc(-c2nnc(NC(=O)C3CCCCC3)o2)cc1,> 100 µM (inactive)
12,CC(C)(C)COC(=O)CSc1n[nH]c(=O)[nH]c1=O,8.89 µM
13,COc1ccc2cc3c(NC(=O)c4ccco4)nn(C)c3nc2c1,2.97 µM
14,Cc1ccc2cc3c(NC(=O)c4cccs4)nn(C)c3nc2c1,> 80 µM (inactive)
15,Cc1cc2cc3c(NC(=O)c4ccco4)nn(C)c3nc2cc1C,45.7 µM
16,Cc1ccc2cc3c(NC(=O)c4ccco4)nn(C)c3nc2c1,10.4 µM and 54.6 µM
17,COc1ccccc1-c1nnc(NC(=O)C2CCCCC2)o1,> 100 µM (inactive)
18,O=c1ncn(-c2cc(Cl)cc(Cl)c2)c2ccccc12,> 80 µM (inactive)
19,O=C(Cc1ccc(-c2ccccc2)cc1)NC1CCC1,1.74 µM
20,CCCCCCCCCC(=O)C(O)CC (configuration not stated),3.81 µM
21,O=C(Nc1nnc(-c2ccc3c(c2)OCCO3)o1)C1CCCCCC1,11.8 µM

# System: not listed separately
# Assay: as above
# Conditions: V. cholerae BH1578 lux luminescence induction, 6 h; at 35 µM (top of the series)
row,SMILES,activation (light induction)
1,O=C(CC1CCCCC1)Nc1nnc(-c2ccc3c(c2)CCCC3)o1,0.065% (inactive)

# Same assay, conditions: V. cholerae BH1578 lux luminescence induction, 6 h; at 80 µM (top of the series)
row,SMILES,activation (light induction)
1,CCOC(=O)c1ccccc1Nc1cccc(Cl)c1,0.004% (inactive)
2,O=c1ncn(-c2cccc(F)c2)c2ccccc12,12.4% (inactive)
3,O=c1ncn(-c2cccc(Cl)c2)c2cccc(Cl)c12,0% (inactive)
4,CCc1nc(=O)c2ccccc2n1-c1cccc(Cl)c1,0.156% (inactive)
5,O=c1ncn(-c2ccc(Cl)c(Cl)c2)c2ccccc12,0.027% (inactive)
6,O=c1ncn(-c2ccccc2Cl)c2ccccc12,0.05% (inactive)
7,Cc1ccc2cc3c(NC(=O)c4ccoc4)nn(C)c3nc2c1,0.289% (inactive)
8,Cc1cccc(-n2cnc(=O)c3ccccc32)c1,6.74% (inactive)
9,O=C(Nc1nnc(-c2ccc3c(c2)OCCO3)o1)C1CCCC1,0.417% (inactive)
10,Cc1ccc2c(c1)c(=O)ncn2-c1cccc(Cl)c1,2.5% (inactive)
11,NC(=O)c1ccccc1Nc1cccc(Cl)c1,0.018% (inactive)
12,O=c1nc(-c2ccccc2)n(-c2cccc(Cl)c2)c2ccccc12,-0.004% (inactive)
13,Cn1cnc(=O)c2ccccc21,0.023% (inactive)
14,O=C(Nc1nnc(-c2ccc3c(c2)CCCC3)o1)C1CCC1,-0.004% (inactive)
15,O=c1[nH]cnc2ccccc12,0.008% (inactive)
16,O=c1ncn(-c2cccc(Cl)c2)c2cc(Cl)ccc12,0.003% (inactive)
17,O=C1C(=O)N(Cc2ccccc2Cl)c2ccccc21,0.156% (inactive)
18,O=c1ncn(-c2ccc(Cl)cc2)c2ccccc12,0.027% (inactive)
19,O=C(CSc1nc2c(c(=O)[nH]1)CCCC2)NC1CCCCC1,0.02% (inactive)
20,O=C(O)c1ccccc1Nc1cccc(Cl)c1,0.019% (inactive)

row,SMILES,activation (light induction)
1,CCC(C)(C)C(=O)Nc1nnc(-c2ccc3c(c2)OCCO3)o1,-0.001% (inactive)
2,O=c1ncn(-c2cccc(Cl)c2)c2ccc(Cl)cc12,3.29% (inactive)
3,O=C(CSc1nc2ccccc2c(=O)[nH]1)NC1CCCCC1,0.005% (inactive)
4,O=c1ncn(Cc2ccc(Cl)cc2)c2ccccc12,0.035% (inactive)
5,O=C(CC1CCCCC1)Nc1nnc(-c2cccnc2)o1,-0.004% (inactive)
6,O=c1nc(Cc2ccccc2)n(-c2cccc(Cl)c2)c2ccccc12,0.573% (inactive)
7,Cc1ccc2c(=O)ncn(-c3cccc(Cl)c3)c2c1,0.023% (inactive)
8,COc1ccc(-n2cnc(=O)c3ccccc32)cc1Cl,0.017% (inactive)
9,Cc1nc(=O)c2ccccc2n1-c1cccc(Cl)c1,9.66% (inactive)
10,NC(=O)c1ccccc1Nc1ccccc1,0.096% (inactive)
11,O=C1C(=O)N(Cc2cccc(Cl)c2)c2ccccc21,0.001% (inactive)
12,Cc1ccc(-n2cnc(=O)c3ccccc32)cc1Cl,0.197% (inactive)
13,O=C(Nc1nnc(-c2cccc(Cl)c2)o1)C1CCCCC1,0.048% (inactive)
14,COC(=O)c1ccccc1Nc1cccc(Cl)c1,0.155% (inactive)
15,COc1cccc(-n2cnc(=O)c3ccccc32)c1,0.108% (inactive)
16,COc1ccc2c(=O)ncn(-c3cccc(Cl)c3)c2c1,0.008% (inactive)
17,O=C(Nc1nnc(-c2ccc(Cl)cc2)o1)C1CCCCC1,0.013% (inactive)
18,O=c1ncn(-c2ccccc2)c2ccccc12,4.58% (inactive)
19,O=c1ncn(-c2ccc(F)c(Cl)c2)c2ccccc12,1.31% (inactive)

# Same assay, conditions: V. cholerae BH1578 lux luminescence induction, 6 h; at 100 µM (top of the series)
row,SMILES,activation (light induction)
1,Cn1ccc(NC(=O)c2ccco2)n1,0.065% (inactive)
2,c1ccc(CNc2nnc(-c3ccc4c(c3)OCCO4)o2)cc1,0.008% (inactive)
3,Cc1ccc2cc3c(NC(=O)c4cc5ccccc5o4)nn(C)c3nc2c1,-0.011% (inactive)
4,O=C(Nc1nnc(-c2cccnc2)o1)C1CCCCC1,3.01% (inactive)
5,Cn1nc(NC(=O)c2ccco2)c2ccccc21,0.203% (inactive)
6,COc1ccc(-c2nnc(NC(C)=O)o2)cc1,0.061% (inactive)
7,CCn1nnnc1/N=C/c1ccc(N2CCCCC2)cc1,0.106% (inactive)
8,CN(C)/C=N/c1nnc(-c2ccc3c(c2)OCCO3)o1,0.03% (inactive)
9,O=C(Cc1ccc(-c2ccccc2)cc1)N[C@@H]1CCOC1 (racemic),12.2% (inactive)
10,Cc1ccc2cc3c(NC(=O)c4ccccn4)nn(C)c3nc2c1,-0.008% (inactive)
11,O=C(Cc1ccc(-c2ccccc2)cc1)NC1CNC1,0.02% (inactive)
12,Cn1nc(NC(=O)c2ccco2)c2cc3ccc(C(C)(C)C)cc3nc21,-0.001% (inactive)
13,Cc1ccc2cc3c(NC(=O)Cc4ccco4)nn(C)c3nc2c1,0.2% (inactive)
14,CN1CCC(C(=O)Nc2nnc(-c3ccc4c(c3)OCCO4)o2)CC1,0.038% (inactive)
15,O=C(Nc1nnc(-c2cccnc2)o1)C1CCC1,0% (inactive)
16,O=S(=O)(Nc1nnc(-c2ccc3c(c2)OCCO3)o1)c1ccc(Cl)cc1,-0.005% (inactive)

row,SMILES,activation (light induction)
1,O=C(Nc1nnc(-c2ccccc2Cl)o1)C1CCCCC1,0.002% (inactive)
2,COc1cccc(-c2nnc(NC(=O)C3CCCCC3)o2)c1,0% (inactive)
3,CC(C)(C)OC(=O)N1CCC(C(=O)Nc2nnc(-c3ccc4c(c3)OCCO4)o2)CC1,0.022% (inactive)
4,O=C(Nc1nnc(-c2ccc3c(c2)OCCO3)o1)C(F)(F)c1ccccc1,-0.005% (inactive)
5,O=C(Nc1nnc(-c2ccncc2)o1)C1CCC1,0.061% (inactive)
6,Cc1ccc2cc3c(NC(=O)c4ccc(C)o4)nn(C)c3nc2c1,-0.007% (inactive)
7,O=C(Nc1nnc(C2CCCC2)o1)C1CCCCC1,-0.004% (inactive)
8,COc1ccc(S(=O)(=O)Nc2nnc(-c3ccc4c(c3)OCCO4)o2)cc1,0.008% (inactive)
9,CCn1nnnc1N,0.004% (inactive)
10,CC(C)c1ccc2cc3c(NC(=O)c4ccco4)nn(C)c3nc2c1,0.254% (inactive)
11,O=C(Cc1ccc(-c2ccccc2)cc1)NC1COC1,1.9% (inactive)
12,C(=N\c1nnc(-c2ccc3c(c2)OCCO3)o1)/c1ccccc1,0.009% (inactive)
13,CCn1nnnc1NC(C)c1ccc(N2CCCC2)cc1 (configuration not stated),11.2% (inactive)
14,O=C(Nc1nnc(-c2ccc3c(c2)OCCO3)o1)C1CC1,0.006% (inactive)
15,O=C(Nc1nnc(-c2ccc3c(c2)OCCO3)o1)C1CCC1,0.011% (inactive)
